Where two headings read alike, the source gives them in different places.
What was measured:
[1] = in humans; cited from earlier work
[2] = system: gastric acid secretion; settings: in humans; cited from earlier work
[3] = system: serum gastrin; settings: humans, on administration; cited from earlier work
[4] = system: hepatic drug metabolizing enzyme systems; settings: relative to omeprazole; cited from earlier work
[5] = pharmacokinetic and duration profile of the S(−) isomer; assay type: in vivo; settings: compared with racemic lansoprazole
Text: Syndrome, psoriasis and other disorders, including those that would benefit from an inhibitory action on H^+, K^+-ATPase in that it provides this effective treatment while substantially reducing the adverse effects of racemic lansoprazole including, but not limited to, hepatocellular neoplasia, gastric carcinoids, headache, diarrhea and skin alterations.

[6] = stability at low pH; assay type: physicochemical
Text: The terms “pharmaceutically acceptable salts” or “a pharmaceutically acceptable salt thereof” refer to salts prepared from pharmaceutically acceptable non-toxic bases. […] Suitable pharmaceutically acceptable base addition salts for the compound of the present invention include metallic salts of aluminum, calcium, lithium, magnesium, potassium, sodium, titanium and zinc or organic salts made from lysine, N,N′-dibenzylethylenediamine, chloroprocaine, choline, diethanolamine, ethylenediamine, meglumine (N-methylglucamine) and procaine. If any salt is to be used, sodium salts are preferred.

[7] = system: canine parietal cells; settings: isolated canine parietal cells; (+) versus (−) enantiomer; Nagaya et al.; cited from earlier work
[8] = system: CYP2D6; assay: metabolism by CYP2D6; settings: CYP2D6 is the polymorphically expressed enzyme
[9] = molecular target: CYP3A4 (Homo sapiens, UniProt P08684); assay: metabolism by CYP3A4
[10] = system: CYP2D6

Sequence of CYP3A4 (P08684 whole entry): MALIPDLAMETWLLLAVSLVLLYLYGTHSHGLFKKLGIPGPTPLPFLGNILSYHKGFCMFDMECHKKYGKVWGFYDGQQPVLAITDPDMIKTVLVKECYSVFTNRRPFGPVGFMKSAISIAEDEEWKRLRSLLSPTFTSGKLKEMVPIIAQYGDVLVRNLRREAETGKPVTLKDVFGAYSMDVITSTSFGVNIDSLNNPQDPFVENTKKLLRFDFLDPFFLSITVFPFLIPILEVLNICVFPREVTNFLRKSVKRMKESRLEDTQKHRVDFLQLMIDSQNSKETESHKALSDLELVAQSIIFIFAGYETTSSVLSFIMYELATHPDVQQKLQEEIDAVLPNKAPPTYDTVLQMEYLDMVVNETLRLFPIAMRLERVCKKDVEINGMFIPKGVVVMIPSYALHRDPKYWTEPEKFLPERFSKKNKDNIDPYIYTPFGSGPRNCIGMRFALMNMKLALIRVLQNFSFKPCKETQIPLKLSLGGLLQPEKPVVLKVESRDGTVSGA

SMILES | serum half-life [1] | duration of the acid inhibitory effect [2] | fasting serum gastrin levels [3] | effects on hepatic drug metabolizing enzyme systems [4] | AUC (area under the curve) [5] | duration [5] | first pass metabolism [5] | onset [5] | stability at low pH [6] | effect on acid formation stimulated by db-cAMP [7] | metabolism by CYP2D6 [8] | metabolism by CYP3A4 [9] | metabolism by CYP2D6 [10]
Cc1c(OCC(F)(F)F)ccnc1C[S+]([O-])c1nc2ccccc2[nH]1 (racemic) [racemic lansoprazole, 2-[3-methyl-4-(2,2,2-trifluoroethoxy)pyrid-2-yl]methylsulfinyl-benzimidazole] | about 1.5 hours | about 24 hours | significantly elevated | comparable to omeprazole | – | – | – | – | – | – | – | – | –
Cc1c(OCC(F)(F)F)ccnc1C[S+]([O-])c1nc2ccccc2[nH]1 (single isomer, unassigned; (-)) [S(−) lansoprazole, (−) isomer of 2-[3-methyl-4-(2,2,2-trifluoroethoxy)pyrid-2-yl]methylsulfinyl-benzimidazole] | – | – | – | – | higher AUC | longer duration | lower first pass metabolism | more rapid onset | unstable at low pH | almost identical | metabolized by both CYP2D6 and CYP3A4 | metabolized by both CYP2D6 and CYP3A4 | –
Cc1c(OCC(F)(F)F)ccnc1C[S@@+]([O-])c1nc2ccccc2[nH]1 [R(+) lansoprazole, reference compound] | – | – | – | – | – | – | – | – | – | almost identical | – | metabolized only by CYP2D6 | metabolized only by CYP2D6
